Data published in US7547706B2, “1H-pyrimido[4,5-b]indole derivatives, their preparation and therapeutic use” (Sanofi-Aventis, priority 2005, dated 2009).
Where a name gives a salt, the structure may show the parent alone. Marks after values point to notes of the source that are not given here.

Legend:
[1] = target: T1, peripheral benzodiazepine receptors (p or PBR sites) (Rattus norvegicus, UniProt P16257); assay: Binding of [3H]Ro5-4864 to peripheral benzodiazepine receptors in rat kidney membranes; conditions: [3H]Ro5-4864 0.5 nM, 3 h at 0° C., read-out: IC50, concentration which inhibits 50% of the specific binding of [3H]Ro5-4864
T1 construct: After decapitation, the kidney was removed and the tissue was homogenized; from tissue; host or cells: kidney membrane homogenate of male Sprague Dawley rats

[2] = tested on: motor neurons of the facial nucleus; assay: Survival of the motor neurons after sectioning the facial nerve in rats aged 4 days; assay type: in vivo, rat; conditions: via oral route, at 10 mg/kg; treated for 7 days; facial nerve lesion in 4 day old rats
Procedure: Test of Survival of the Motor Neurons after Sectioning the Facial Nerve in Rats Aged 4 Days
After lesion of the facial nerve in immature rats, the motor neurons of the facial nucleus underwent neuronal death by apoptosis. Neural survival was evaluated using histological methods and neuronal counting.
4 day old immature rats were anesthetized with pentobarbital (3 mg/kg by the i.p. route). The right facial nerve was exposed and sectioned, at its outlet from the stylomastoid foramen. After waking up, the young rats were returned to their mothers and treated for 7 days with one or two daily administrations, via oral or intraperitoneal route, at doses ranging from 1 to 10 mg/kg.
7 days after the lesion, the animals were decapitated and the brains frozen in isopentane at −40° C. The entire facial […] was cut with a cryostat into 10 μm sections. The motor neurons were colored with cresyl violet and counted using the Histo™ software (Biocom™).

melting point [°C] | Compound | IC50 [1] [nM] | % increase of neuronal survival [2]
285 to 289 | Cc1cc(-c2nc(C(=O)N(C)C)c3c4ccc(Cl)cc4n(C)c3n2)cnc1C.Cl | – | –
231 to 232 | CN(C)C(=O)Cc1nc(-c2ccncc2)nc2c1c1ccc(Cl)cc1n2C [Compound 21, 2-(7-chloro-9-methyl-2-pyridin-4-yl-9H-pyrimido[4,5-b]indol-4-yl)-N,N-dimethylacetamide] | – | –
289 to 291 | CN(C)C(=O)c1nc(-c2cnc3c(c2)CCCC3)nc2c1c1ccc(Cl)cc1n2C.Cl | – | –
139 to 140 | CCOC(=O)c1nc(-c2ccccc2)nc2c1c1ccc(Cl)cc1n2C [Compound 24, Ethyl 7-chloro-9-methyl-2-phenyl-9H-pyrimido[4,5-b]indole-4-carboxylate] | – | –
125 to 126 | CC(C)c1nc(C(=O)N(C)C)c2c3ccc(Cl)cc3n(C)c2n1 [Compound 34, 7-chloro-2-isopropyl-N,N,9-trimethyl-9H-pyrimido[4,5-b]indole-4-carboxamide] | – | –
208 to 209 | Cn1c2cc(Cl)ccc2c2c(C(=O)O)nc(-c3ccccc3)nc21 [Compound 26, 7-chloro-9-methyl-2-phenyl-9H-pyrimido[4,5-b]indole-4-carboxylic acid] | – | –
236 to 238 | CN1CCN(C(=O)c2nc(-c3ccccc3)nc3c2c2ccc(Cl)cc2n3C)CC1 [Compound 11, 7-chloro-9-methyl-4-[(4-methylpiperazin-1-yl)carbonyl]-2-phenyl-9H-pyrimido[4,5-b]indole] | – | –
288 to 292 | Cc1cc(-c2nc(C(=O)N(C)C)c3c4ccc(Cl)cc4n(C)c3n2)cc(C)n1.Cl | – | –
218 to 219 | CN(C)C(=O)c1nc(-c2ccccc2)nc2[nH]c3ccccc3c12 [Compound 23, N,N-dimethyl-2-phenyl-9H-pyrimido[4,5-b]indole-4-carboxamide] | – | –
256 to 258 | Cn1c2cc(Cl)ccc2c2c(C(=O)N3CCCC3)nc(-c3ccncc3)nc21 [Compound 14, 7-chloro-9-methyl-2-pyridin-4-yl-4-(pyrrolidin-1-ylcarbonyl)-9H-pyrimido[4,5-b]indole] | – | –
230 to 236 | CC(C)Cn1c2cc(Cl)ccc2c2c(C(=O)N(C)C)nc(-c3ccncc3)nc21 (as salt: HCl) [Compound 31, 7-chloro-9-isobutyl-N,N-dimethyl-2-pyridin-4-yl-9H-pyrimido[4,5-b]indole-4-carboxamide] | – | –
248 to 251 | CN(C)C(=O)Cc1nc(-c2cccnc2)nc2c1c1ccc(Cl)cc1n2C [Compound 22, 2-(7-chloro-9-methyl-2-pyridin-3-yl-9H-pyrimido[4,5-b]indol-4-yl)-N,N-dimethylacetamide] | – | –
283 to 284 | CN(C)C(=O)c1nc(-c2cccnc2)nc2c1c1ccc(Cl)cc1n2C [Compound 16, 7-chloro-N,N,9-trimethyl-2-pyridin-3-yl-9H-pyrimido[4,5-b]indole-4-carboxamide] | – | –
– | CN(C)C(=O)c1nc(-c2ccccc2)nc2c1c1ccc(Cl)cc1n2C [Compound 2, 7-chloro-N,N,9-trimethyl-2-phenyl-9H-pyrimido[4,5-b]indole-4-carboxamide] | 2.2 | +25* %
240 to 242 | CN(C)Cc1ccc(-c2nc(C(=O)N(C)C)c3c4ccc(Cl)cc4n(C)c3n2)cn1 (as salt: HCl) [Compound 47, 7-chloro-2-{6-[(dimethylamino)methyl]pyridin-3-yl}-N,N,9-trimethyl-9H-pyrimido[4,5-b]indole-4-carboxamide] | – | –
229 to 231 | CN(C)C(=O)c1nc(-c2ccccc2)nc2c1c1ccc(F)cc1n2C [Compound 3, 7-fluoro-N,N,9-trimethyl-2-phenyl-9H-pyrimido[4,5-b]indole-4-carboxamide] | – | –
239 to 241 | COCc1ccc(-c2nc(C(=O)N(C)C)c3c4ccc(Cl)cc4n(C)c3n2)cn1 [Compound 45, 7-chloro-2-[6-(methoxymethyl)pyridin-3-yl]-N,N,9-trimethyl-9H-pyrimido[4,5-b]indole-4-carboxamide] | – | –
232 to 235 | CCc1ccc(-c2nc(C(=O)N(C)C)c3c4ccc(Cl)cc4n(C)c3n2)cn1 [Compound 40, 7-chloro-2-(6-ethylpyridin-3-yl)-N,N,9-trimethyl-9H-pyrimido[4,5-b]indole-4-carboxamide] | – | –

melting point [°C] | Compound | IC50 [1] [nM] | % increase of neuronal survival [2]
275 to 276 | CN(C)C(=O)c1nc(-c2ccc(Cl)nc2)nc2c1c1ccc(Cl)cc1n2C [Compound 37, 7-chloro-2-(6-chloropyridin-3-yl)-N,N,9-trimethyl-9H-pyrimido[4,5-b]indole-4-carboxamide] | – | –
– | CN(C)C(=O)c1nc(-c2ccncc2)nc2c1c1ccc(Cl)cc1n2C [Compound 15, 7-chloro-N,N,9-trimethyl-2-pyridin-4-yl-9H-pyrimido[4,5-b]indole-4-carboxamide] | 3.1 | +40* %
322 to 325 | CN(C)C(=O)c1nc(-c2cncnc2)nc2c1c1ccc(Cl)cc1n2C [Compound 43, 7-chloro-N,N,9-trimethyl-2-pyrimidin-5-yl-9H-pyrimido[4,5-b]indole-4-carboxamide] | – | –
193 to 195 | Cc1nc(C(=O)N(C)C)c2c3ccc(Cl)cc3n(C)c2n1 [Compound 33, 7-chloro-N,N,2,9-tetramethyl-9H-pyrimido[4,5-b]indole-4-carboxamide] | – | –
258 to 260 | COc1cncc(-c2nc(C(=O)N(C)C)c3c4ccc(Cl)cc4n(C)c3n2)c1 [Compound 44, 7-chloro-2-(5-methoxypyridin-3-yl)-N,N,9-trimethyl-9H-pyrimido[4,5-b]indole-4-carboxamide] | – | –
193 to 195 | CN(C)C(=O)c1nc(-c2ccccc2)nc2c1c1ccccc1n2C [Compound 1, N,N,9-trimethyl-2-phenyl-9H-pyrimido[4,5-b]indole-4-carboxamide] | – | –
232 to 233 | CN(C)C(=O)c1nc(-c2ccccc2)nc2[nH]c3cc(Cl)ccc3c12 [Compound 5, 7-chloro-N,N-dimethyl-2-phenyl-9H-pyrimido[4,5-b]indole-4-carboxamide] | – | –
197 to 198 | CN(C)C(=O)c1nc(C2CC2)nc2c1c1ccc(Cl)cc1n2C [Compound 32, 7-chloro-2-cyclopropyl-N,N,9-trimethyl-9H-pyrimido[4,5-b]indole-4-carboxamide] | – | –
222 to 224 | CN(C)C(=O)c1nc(-c2ccccc2)nc2c1c1cc(Cl)ccc1n2C [Compound 4, 6-chloro-N,N,9-trimethyl-2-phenyl-9H-pyrimido[4,5-b]indole-4-carboxamide] | – | –
272 to 273 | CN(C)C(=O)c1nc(-c2cnccn2)nc2c1c1ccc(Cl)cc1n2C [Compound 18, 7-chloro-N,N,9-trimethyl-2-pyrazin-2-yl-9H-pyrimido[4,5-b]indole-4-carboxamide] | – | –
267 to 268 | COc1ccc(-c2nc(C(=O)N(C)C)c3c4ccc(Cl)cc4n(C)c3n2)cn1 [Compound 28, 7-chloro-2-(6-methoxypyridin-3-yl)-N,N,9-trimethyl-9H-pyrimido[4,5-b]indole-4-carboxamide] | – | –
218 to 219 | CCc1cncc(-c2nc(C(=O)N(C)C)c3c4ccc(Cl)cc4n(C)c3n2)c1 [Compound 41, 7-chloro-2-(5-ethylpyridin-3-yl)-N,N,9-trimethyl-9H-pyrimido[4,5-b]indole-4-carboxamide] | – | –
313 to 314 | Cc1cncc(-c2nc(C(=O)N(C)C)c3c4ccc(Cl)cc4n(C)c3n2)c1 [Compound 42, 7-chloro-N,N,9-trimethyl-2-(5-methylpyridin-3-yl)-9H-pyrimido[4,5-b]indole-4-carboxamide] | – | –
237 to 239 | CCOc1ccc(-c2nc(C(=O)N(C)C)c3c4ccc(Cl)cc4n(C)c3n2)cn1 [Compound 39, 7-chloro-2-(6-ethoxypyridin-3-yl)-N,N,9-trimethyl-9H-pyrimido[4,5-b]indole-4-carboxamide] | – | –
278 to 279 | COc1cc(-c2nc(C(=O)N(C)C)c3c4ccc(Cl)cc4n(C)c3n2)ccn1 [Compound 30, 7-chloro-2-(2-methoxypyridin-4-yl)-N,N,9-trimethyl-9H-pyrimido[4,5-b]indole-4-carboxamide] | – | –
256 to 258 | Cc1nc(-c2nc(C(=O)N(C)C)c3c4ccc(Cl)cc4n(C)c3n2)cs1 [Compound 46, 7-chloro-N,N,9-trimethyl-2-(2-methyl-1,3-thiazol-4-yl)-9H-pyrimido[4,5-b]indole-4-carboxamide] | – | –
174.5 to 175.5 | CN(C)C(=O)c1nc(C2CCOCC2)nc2c1c1ccc(Cl)cc1n2C [Compound 35, 7-chloro-N,N,9-trimethyl-2-(tetrahydro-2H-pyran-4-yl)-9H-pyrimido[4,5-b]indole-4-carboxamide] | – | –
– | CN(C)C(=O)Cc1nc(-c2ccccc2)nc2c1c1ccc(Cl)cc1n2C [Compound 19, 2-(7-chloro-9-methyl-2-phenyl-9H-pyrimido[4,5-b]indol-4-yl)-N,N-dimethylacetamide] | 1.3 | +21* %
